Assay: xn = mol fraction of the nth substance listed
Conditions: 100 kPa

Which viscosity (303.15 K, x2 = 0) does the source give for `CN(C)C=O` + CCCC[n+]1ccn(C)c1.F[B-](F)(F)F here?
The viscosity was 0.77 mPa·s.

What about the viscosity (313.15 K, x2 = 0) of the same compound?
Its viscosity is 0.688 mPa·s.

And the viscosity (323.15 K, x2 = 0)?
Its viscosity is 0.619 mPa·s.

Which viscosity (303.15 K, x1 = 0.2015) does the source give for `CCCC[n+]1ccn(C)c1.F[B-](F)(F)F` + CN(C)C=O here?
The viscosity was 2.598 mPa·s.

And the viscosity (303.15 K, x1 = 0.3022)?
Its viscosity is 4.414 mPa·s.

And the viscosity (303.15 K, x1 = 0.4024)?
The viscosity was 7.178 mPa·s.

And the viscosity (303.15 K, x1 = 0.502)?
Its viscosity is 11.55 mPa·s.

What about the viscosity (303.15 K, x1 = 0.6024) of the same compound?
The viscosity was 17.99 mPa·s.

What about the viscosity (303.15 K, x1 = 0.7019) of the same compound?
Its viscosity is 26.92 mPa·s.

What about the viscosity (303.15 K, x1 = 0.8015) of the same compound?
Its viscosity is 39.91 mPa·s.

What about the viscosity (303.15 K, x1 = 0.9002) of the same compound?
The viscosity was 58.87 mPa·s.

And the viscosity (303.15 K, x1 = 1)?
Its viscosity is 85.4 mPa·s.

And the viscosity (313.15 K, x1 = 0.1008)?
Its viscosity is 1.298 mPa·s.

And the viscosity (313.15 K, x1 = 0.2015)?
Its viscosity is 2.198 mPa·s.

And the viscosity (313.15 K, x1 = 0.3022)?
The viscosity was 3.585 mPa·s.

And the viscosity (313.15 K, x1 = 0.4024)?
Its viscosity is 5.632 mPa·s.

What about the viscosity (313.15 K, x1 = 0.502) of the same compound?
Its viscosity is 8.76 mPa·s.

And the viscosity (313.15 K, x1 = 0.6024)?
Its viscosity is 13.13 mPa·s.

And the viscosity (313.15 K, x1 = 0.7019)?
The viscosity was 19.05 mPa·s.

And the viscosity (313.15 K, x1 = 0.9002)?
Its viscosity is 38.08 mPa·s.

And the viscosity (323.15 K, x1 = 0.1008)?
Its viscosity is 1.142 mPa·s.

What about the viscosity (323.15 K, x1 = 0.2015) of the same compound?
The viscosity was 1.892 mPa·s.

What about the viscosity (323.15 K, x1 = 0.4024) of the same compound?
Its viscosity is 4.587 mPa·s.

And the viscosity (323.15 K, x1 = 0.502)?
Its viscosity is 6.849 mPa·s.

What about the viscosity (323.15 K, x1 = 0.6024) of the same compound?
The viscosity was 10 mPa·s.

What about the viscosity (323.15 K, x1 = 0.8015) of the same compound?
The viscosity was 19.37 mPa·s.

What about the viscosity (323.15 K, x1 = 0.9002) of the same compound?
Its viscosity is 26.77 mPa·s.

And the viscosity (323.15 K, x1 = 1)?
The viscosity was 36.27 mPa·s.

And the viscosity (333.15 K, x1 = 0.1008)?
Its viscosity is 1.012 mPa·s.

And the viscosity (333.15 K, x1 = 0.2015)?
Its viscosity is 1.631 mPa·s.

What about the viscosity (333.15 K, x1 = 0.3022) of the same compound?
Its viscosity is 2.53 mPa·s.

What about the viscosity (333.15 K, x1 = 0.4024) of the same compound?
The viscosity was 3.873 mPa·s.

What about the viscosity (333.15 K, x1 = 0.502) of the same compound?
The viscosity was 5.565 mPa·s.

And the viscosity (333.15 K, x1 = 0.6024)?
Its viscosity is 7.857 mPa·s.

What about the viscosity (333.15 K, x1 = 0.8015) of the same compound?
Its viscosity is 14.43 mPa·s.

And the viscosity (333.15 K, x1 = 0.9002)?
The viscosity was 19.11 mPa·s.

And the viscosity (333.15 K, x1 = 1)?
Its viscosity is 25.46 mPa·s.

Reference: a compilation of properties of binary mixtures (doi:10.1016/j.jtice.2014.04.012)
